Results on 41 molecules are retold here after patent publication US8969542B2, “HPV polyepitope constructs and uses thereof” (priority 2007, dated 2015).

Where no end group is shown, it is not given here.

Among the targets are HLA A3002 (Homo sapiens, UniProt P04439, D101N/D140H/D185E/E176R/F33S/G80R/H175R/K168Q/Q94H/R138E/R41S/V100E); HLA A2902 (Homo sapiens, UniProt P04439, A270S/D101N/D185E/E176V/E277Q/E87Q/F33T/G231S/H175R/I121M/I218V/I322F/K168Q/L300P/L318F/M331R/P208A/P217A/Q86L/T323A/T345S/V100A/V358M); HLA A2601 (Homo sapiens, UniProt P04439, A114D/A173T/A270S/D101N/D185E/E277Q/E87N/F33Y/G231S/I121R/I218V/K168Q/L180W/L300P/L318F/P208A/P217A/Q86R/Q94H/R138Q/S129P/T187R/T323A/T345S/V100A/V358M); HLA A3301 (Homo sapiens, UniProt P04439, A270S/D185E/E176V/E277Q/E87N/F33T/G231S/H175R/I121M/I218V/I322F/K168Q/K210R/L300P/L318F/M331R/P217A/Q86R/Q94H/R138Q/T323A/T345S/T97I/V358M/Y195H); HLA A3101 (Homo sapiens, UniProt P04439, A270S/D185E/E176V/E277Q/F33T/G231S/G80R/H175R/I121M/I218V/I322F/K168Q/L300P/L318F/M331R/P217A/Q94H/R138Q/T323A/T345S/T97I/V358M); HLA A1101 (Homo sapiens, UniProt P04439, A114D/D185E/E176A/F33Y/L180Q/S129P/T187R); HLA A6801 (Homo sapiens, UniProt P04439, A269V/D185E/E176V/E277Q/E87N/F33Y/G231S/I121M/I166T/I218V/L180W/L300P/L318F/N151K/P208A/P217A/Q86R/R169H/T345S); HLA A2402 (Homo sapiens, UniProt P04439, D101N/D140Y/D185E/E176V/E190D/F33S/G103R/G107R/I119L/I121M/I306V/K335N/L105A/L180Q/L300P/N151K/N90K/Q86E/Q94H/R106L/R138H/R89G/T104I/T345S/V100E/W191G/Y123F); HLA A2302 (Homo sapiens, UniProt P04439, D101N/D140Y/D185E/E176V/E190D/F33S/G103R/G107R/H175R/I119L/I121M/I306V/K168Q/K335N/L105A/L180W/L300P/N151K/N90K/P307H/Q86E/Q94H/R106L/R138H/R89G/T104I/T345S/V100E/W191G/Y123F); HLA A6802 (Homo sapiens, UniProt P04439, A269V/D140Y/D185E/E176V/E277Q/E87N/F33Y/G231S/I121R/I166T/I218V/L180W/L300P/L318F/N151K/P208A/P217A/Q86R/R138H/R169H/S129P/T345S/V36M); HLA A0202 (Homo sapiens, UniProt P04439, D140Y/D185E/D98H/E176V/E277Q/G131W/G231S/I119L/I121R/I166T/I218V/L180W/L300P/L318F/N151K/N90K/P208A/P217A/Q67R/Q86G/Q94H/R138H/R169H/T345S); HLA A0203 (Homo sapiens, UniProt P04439, A173T/D140Y/D185E/D98H/E277Q/G131W/G231S/I119V/I121R/I166T/I218V/L180W/L300P/L318F/N151K/N90K/P208A/P217A/Q86G/Q94H/R138H/R169H/T345S).

Common to all, as to experiment: HLA class I competition binding assay using soluble HLA
A further test concerns the target T1, HLA A0301 (Homo sapiens, UniProt P04439).
T1 construct: endogenous in cells

Take `CC(C)C[C@H](NC(=O)CNC(=O)[C@@H](NC(=O)[C@H](CC(N)=O)NC(=O)[C@@H](NC(=O)[C@H](CC(C)C)NC(=O)[C@H](CCCCN)NC(=O)[C@H](CCC(=O)O)NC(=O)[C@H](CC(C)C)NC(=O)[C@@H](N)[C@@H](C)O)[C@@H](C)O)[C@@H](C)O)C(=O)N[C@@H](Cc1ccc(O)cc1)C(=O)O` [compound 26]: the IC50 – broadly, the concentration needed to halve the response being measured – stood at 476 nM at HLA A3002, 2380 nM at HLA A2902 and 265 nM on HLA A2601.
As to STAAALYWYK [compound 13], the IC50 at HLA A3301 amounted to 128 nM.
In the case of ATLQDIVLH [compound 38], the results for the IC50 on HLA A0301 and at HLA A3101 were 211 nM and 543 nM, respectively.
For LQDKILDHY [compound 67], the results for the IC50 at HLA A3002 and at HLA A2601 were 836 nM and 5000 nM, respectively.
Take VVLLLVRYK [compound 12]: the IC50 turned out to be 4.1 nM on HLA A1101; 6.1 nM on HLA A3301; 6.3 nM at HLA A0301; 0.1 nM on HLA A3101; 76 nM on HLA A6801.
For the molecule SVYGETLEK [compound 83], the IC50 amounted to 9.5 nM on HLA A1101, 6510 nM at HLA A3101 and 7.2 nM on HLA A6801.
FYSKVSEFRW [compound 65]: the IC50 at HLA A3002 came to 1360 nM; at HLA A2902, 1780 nM; at HLA A2402, 4.5 nM; on HLA A2302 it was 8.8 nM.
As to STAAALYWYR [compound 56], the IC50 at HLA A1101 was found to be 10 nM; at HLA A3301, 47 nM; at HLA A0301 it was 198 nM; on HLA A3101, 5.6 nM; at HLA A6801, 12 nM.
At HLA A2601, LTDVSIACVY [compound 69] registered an IC50 of 8200 nM.
Regarding STWHWTGCNK [compound 80], the IC50 on HLA A1101 was found to be 2.8 nM; at HLA A3301 it was 428 nM.
Turning to FVVYRDSIPK [compound 36], the concentration for half-maximal inhibition (IC50) on HLA A1101 came out at 2500 nM; at HLA A3301 it was 473 nM; at HLA A0301, 3440 nM; on HLA A3101, 8 nM; at HLA A6801, 176 nM.
Take SVYGTTLER [compound 60]: the IC50 was found to be 7 nM at HLA A1101; 853 nM at HLA A3301; 22 nM on HLA A0301; 75 nM on HLA A3101; 4 nM on HLA A6801.
Turning to LSQMVQWAY [compound 1], the IC50 on HLA A3002 came out at 0.93 nM; at HLA A2601 it was 6450 nM.
Consider VFTFPHAFPF [compound 84], for which the IC50 on HLA A3002 is > 20000 nM; at HLA A2902, 57 nM; at HLA A2402, 90.4 nM; at HLA A2302, 15.9 nM.
For AVMCRHYKR [compound 78], the IC50 is 38 nM on HLA A1101, 311 nM on HLA A0301 and 29 nM on HLA A6801.
In the case of FYSRIRELRF [compound 88], the values for the IC50 on HLA A3002, at HLA A2402 and on HLA A2302 were > 20000 nM, 3.2 nM and 1 nM, respectively.
With YYITETGIW [compound 85], the IC50 at HLA A3002 is > 20000 nM; at HLA A2902, > 20000 nM; at HLA A2402, 8.5 nM; on HLA A2302, 2 nM.
Consider RTEVYQFAFR [compound 82], for which the IC50 at HLA A3301 was 696 nM; on HLA A3101 it was 8 nM; on HLA A6801, 439 nM.
Turning to VYVCAFAWLL [compound 86], the IC50 on HLA A3002 is > 20000 nM; on HLA A2902, 2350 nM; at HLA A2402, 8.4 nM; at HLA A2302, 8.1 nM.
On to KVSEFRWYRY [compound 59], for which the IC50 on HLA A3301 stood at 338 nM; at HLA A0301, 213 nM; at HLA A3101, 3 nM; on HLA A6801 it was 192 nM.
Regarding AATKYPLLK [compound 17], the IC50 was 20 nM on HLA A1101, > 20000 nM at HLA A3301, > 20000 nM on HLA A3101 and > 20000 nM on HLA A6801.
For HYTNWKFIF [compound 63], the IC50 amounted to 4850 nM on HLA A3002, 433 nM at HLA A2902, 8.5 nM at HLA A2402 and 16 nM on HLA A2302.
VTTRYPLLR [compound 81]: the IC50 on HLA A3301 is > 20000 nM; on HLA A0301, 158 nM; at HLA A6801, 3150 nM.
Regarding VYDFAFRDLCI [compound 20], the concentration for half-maximal inhibition (IC50) on HLA A3002 was > 20000 nM; on HLA A2902 it was > 20000 nM; at HLA A2402 it was 22 nM; at HLA A2302 it was 8.9 nM.
For `CC[C@H](C)[C@H](N)C(=O)N[C@@H](CO)C(=O)N[C@@H](Cc1ccccc1)C(=O)N[C@@H](C)C(=O)NCC(=O)N[C@H](C(=O)N[C@H](C(=O)N[C@H](C(=O)N[C@@H](CCCCN)C(=O)O)[C@@H](C)O)C(C)C)[C@@H](C)CC` [compound 57], the IC50 is 1.6 nM at HLA A1101, 115 nM on HLA A3101 and 16 nM on HLA A6801.
Turning to ELDPVDLLCY [compound 71], the IC50 is > 20000 nM at HLA A3002 and 2110 nM on HLA A2601.
For the molecule STVSVGTAK [compound 34], at HLA A3301, the IC50 is > 20000 nM.
VYQFAFKDL [compound 87]: the IC50 on HLA A2902 was > 20000 nM; at HLA A2402, 4 nM; at HLA A2302, 1.1 nM.
As to VYGTTLEKL [compound 66], the IC50 on HLA A3002 was 1240 nM; on HLA A2902, > 20000 nM; on HLA A2402, 26 nM; on HLA A2302, 8.2 nM.
Take TLQEIVLHV [compound 77]: the half-maximal inhibitory concentration (IC50) at HLA A6802 came to 2460 nM; on HLA A0202 it was 30 nM; at HLA A0203, 5.1 nM.
With ATCVSHRGLY [compound 25], the IC50 at HLA A2601 was 646 nM.
Consider SVICFVNSK [compound 16], for which the IC50 turned out to be 2.2 nM on HLA A1101, 51 nM at HLA A3301 and 5.4 nM at HLA A6801.
Consider KLLEKLLCI [compound 49], for which, at HLA A0203, the IC50 came to 2.4 nM.
Consider LYGVSFSEL [compound 18], for which the IC50 is > 20000 nM at HLA A3002, > 20000 nM on HLA A2902, 3.1 nM on HLA A2402 and 7.2 nM on HLA A2302.
Turning to QVVPAYNISK [compound 35], the IC50 on HLA A0301 was determined as 308 nM.
Take ATTPIIHLK [compound 58]: the IC50 at HLA A1101 is 1.2 nM; on HLA A3301, > 20000 nM; at HLA A0301, 10 nM; at HLA A3101, 34 nM; on HLA A6801, 2.5 nM.
On to DSVYGDTLER [compound 37], for which the values for the IC50 at HLA A0301, at HLA A3101 and at HLA A6801 were 193 nM, 246 nM and 44 nM, respectively.
For PYLHSRLVVF [compound 61], the figures for the IC50 at HLA A2902, at HLA A2402 and at HLA A2302 were 4370 nM, 38.7 nM and 2.8 nM, respectively.
For the molecule QTEPDTSNY [compound 48], the half-maximal inhibitory concentration (IC50) at HLA A2601 is > 20000 nM.
As to VYVFCFLLPM [compound 43], the IC50 was > 20000 nM at HLA A3002, 5280 nM on HLA A2902, 178 nM on HLA A2402 and 57 nM at HLA A2302.
For KSLFGMSLMK [compound 15], the values for the IC50 on HLA A0301, at HLA A3101 and on HLA A6801 were 3.9 nM, 230 nM and 887 nM, respectively.
